Earlier results as cited in US12662687B2, “Methods and compositions for the production of xylitol from xylose utilizing dynamic metabolic control” (Duke University, priority 2020, dated 2026).

Target: membrane bound transhydrogenase encoded by the pntAB genes (Escherichia coli, UniProt P07001+P0AB67)
Conditions: competitive inhibitor, reported value

Sequence of membrane bound transhydrogenase encoded by the pntAB genes (P07001 whole entry): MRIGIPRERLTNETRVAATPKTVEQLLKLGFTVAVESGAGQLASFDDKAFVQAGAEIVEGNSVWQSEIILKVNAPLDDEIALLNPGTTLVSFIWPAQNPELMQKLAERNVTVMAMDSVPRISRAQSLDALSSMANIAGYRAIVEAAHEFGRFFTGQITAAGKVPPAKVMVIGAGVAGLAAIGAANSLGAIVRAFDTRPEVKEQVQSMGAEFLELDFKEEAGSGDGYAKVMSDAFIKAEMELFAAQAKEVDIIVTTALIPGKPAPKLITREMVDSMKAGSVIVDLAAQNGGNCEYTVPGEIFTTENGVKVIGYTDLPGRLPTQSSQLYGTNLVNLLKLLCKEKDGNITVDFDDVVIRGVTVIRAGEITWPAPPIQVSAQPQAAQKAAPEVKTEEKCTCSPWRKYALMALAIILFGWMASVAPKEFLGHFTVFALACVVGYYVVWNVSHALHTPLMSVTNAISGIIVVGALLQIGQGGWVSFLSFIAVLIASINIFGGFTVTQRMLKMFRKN
Sequence of membrane bound transhydrogenase encoded by the pntAB genes (P0AB67 whole entry): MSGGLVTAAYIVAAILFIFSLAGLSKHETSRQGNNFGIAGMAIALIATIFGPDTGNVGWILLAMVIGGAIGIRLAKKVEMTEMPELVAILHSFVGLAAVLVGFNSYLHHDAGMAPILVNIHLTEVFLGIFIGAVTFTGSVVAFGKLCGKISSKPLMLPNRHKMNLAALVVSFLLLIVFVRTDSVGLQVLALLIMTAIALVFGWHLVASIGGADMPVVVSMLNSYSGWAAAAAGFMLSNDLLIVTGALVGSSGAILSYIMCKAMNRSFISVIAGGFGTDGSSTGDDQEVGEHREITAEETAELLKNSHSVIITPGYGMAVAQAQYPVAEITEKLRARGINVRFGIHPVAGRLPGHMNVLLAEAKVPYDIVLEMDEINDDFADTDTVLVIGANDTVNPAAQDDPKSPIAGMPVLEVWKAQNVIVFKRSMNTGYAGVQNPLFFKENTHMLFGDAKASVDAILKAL

CCCCCCCCCCCCCCCC(=O)SCCNC(=O)CCNC(=O)[C@H](O)C(C)(C)COP(=O)(O)OP(=O)(O)OC[C@H]1O[C@@H](n2cnc3c(N)ncnc32)[C@H](O)[C@@H]1OP(=O)(O)O [Palmitoyl-CoA]
Ki: 1 to 5 µM
